Experimental data taken from the NIST ThermoML archive (doi:10.1021/je400310h).

Test: mn = molality of the nth substance listed, in mol/kg
Settings: 101 kPa, Liquid, Vibrating tube method

CCC[n+]1ccn(CC(=O)O)c1.[Cl-] [1-(carboxymethyl)-3-propylimidazolium chloride] + O
mass density [kg/m3]
Settings	m1 = 0.0302	m1 = 0.0505	m1 = 0.1021	m1 = 0.2084	m1 = 0.5569	m1 = 1.257	m1 = 2.166	m1 = 3.386	m1 = 5.114	m1 = 7.768
293.15 K	999.68	1000.6	1002.96	1007.61	1021.7	1046.14	1071.45	1097.44	1123.69	1150.29
298.15 K	998.52	999.44	1001.71	1006.08	1019.83	1044.05	1069.11	1094.76	1120.74	1147.15
303.15 K	997.01	998	1000.1	1004.64	1018.22	1041.75	1066.6	1091.97	1117.73	1143.97

CCC[n+]1ccn(CCO)c1.[Cl-] [1-(2-hydroxylethyl)-3-propylimidazolium chloride] + O
mass density [kg/m3]
Settings	293.15 K	298.15 K	303.15 K
m1 = 0.01	998.4	997.35	995.88
m1 = 0.0505	999.68	998.47	997.08
m1 = 0.102	1001.01	999.89	998.4
m1 = 0.208	1004.05	1002.76	1001.15
m1 = 0.5535	1012.98	1011.56	1009.99
m1 = 1.175	1027.62	1025.68	1023.8
m1 = 2.103	1046.02	1043.76	1041.7
m1 = 3.23	1063.98	1061.54	1058.92
m1 = 4.772	1082.55	1079.86	1077.08
m1 = 5.992	1093.61	1090.78	1087.9
m1 = 7.003	1101.22	1098.33	1095.39

C[n+]1ccn(CC(=O)O)c1.[Cl-] [1-carboxymethyl-3-methylimidazolium chloride] + O
mass density [kg/m3]
Settings	m1 = 0.0302	m1 = 0.0505	m1 = 0.1018	m1 = 0.2072	m1 = 0.5443	m1 = 1.214	m1 = 2.041	m1 = 3.094	m1 = 4.466	m1 = 6.375
293.15 K	999.87	1000.94	1003.6	1008.87	1024.61	1052.15	1080.57	1110.21	1140.75	1173
298.15 K	998.71	999.76	1002.36	1007.5	1022.95	1050.32	1078.44	1107.83	1138.14	1170.21
303.15 K	997.12	998.24	1000.9	1006.06	1021.26	1048.33	1076.13	1105.34	1135.4	1167.36
